Tested on: ‘CL153’ rice plant
Test: Herbicide tolerance and susceptibility of rice cultivar 'CL153'
Format: in vivo, Oryza sativa
Conditions: for resistance or sensitivity of ‘CL153’ to the herbicide: at levels of the herbicide that would normally inhibit the growth of a rice plant, partly actual observations, partly assumptions based on common ancestry with ‘CL161’; for resistance of ‘CL153’ to imidazolinone herbicides: general statement, profile essentially identical to ‘CL161’
From the text: Among others, the herbicide tolerance and susceptibility characteristics of ‘CL153’ include or are expected to include the following.

SMILES | resistance or sensitivity of ‘CL153’ to the herbicide | resistance of ‘CL153’ to imidazolinone herbicides
COC(=O)c1sccc1S(=O)(=O)NC(=O)Nc1nc(C)nc(OC)n1 [thifensulfuron methyl] | resistant | 
CCOC(=O)c1ccccc1S(=O)(=O)NC(=O)Nc1nc(Cl)cc(OC)n1 [chlorimuron ethyl] | sensitive | 
COC(=O)c1ccccc1S(=O)(=O)NC(=O)Nc1nc(C)nc(OC)n1 [metsulfuron methyl] | resistant | 
CCS(=O)(=O)c1cccnc1S(=O)(=O)NC(=O)Nc1nc(OC)cc(OC)n1 [rimsulfuron] | sensitive | 
Cc1cnc(C2=NC(=O)C(C)(C(C)C)N2)c(C(=O)O)c1 (centres unmarked) [imazapic] | resistant | 
CCc1cnc(C2=NC(C)(C(C)C)C(=O)N2)c(C(=O)O)c1 (centres unmarked) [imazethapyr] | resistant | highly resistant
COC(=O)c1ccccc1S(=O)(=O)NC(=O)Nc1nc(C)cc(C)n1 [sulfometuron methyl] | sensitive | 
CC(C)C1(C)N=C(c2ncccc2C(=O)O)NC1=O (centres unmarked) [imazapyr] | resistant | 
COC(=O)c1ccccc1S(=O)(=O)NC(=O)N(C)c1nc(C)nc(OC)n1 [tribenuron methyl] | resistant | 
COCc1cnc(C2=NC(C)(C(C)C)C(=O)N2)c(C(=O)O)c1 (centres unmarked) [imazamox] | resistant | highly resistant
COc1cc(OC)nc(NC(=O)NS(=O)(=O)c2ncccc2C(=O)N(C)C)n1 [nicosulfuron] | resistant | 
CC(C)C1(C)N=C(c2nc3ccccc3cc2C(=O)O)NC1=O (centres unmarked) [imazaquin] | resistant | 
